# Literature values, collected in patent US20240180834A1, “DEVELOPMENT OF COVID-19 VACCINE USING A DUAL TLR LIGAND LIPOSOME ADJUVANT” (priority 2021, published 2024).
# Conditions: earlier work
structure (smiles),measurement,value
"CCCCCCCCCCCCCCCCCC(=O)NCCCCOn1c(CCCC)nc2c(N)nc3ccccc3c21 [3M-052, N-[4-(4-amino-2-butylimidazo[4,5-c]quinolin-1-yl)oxybutyl]octadecanamide]",type of immune response elicited by the TLR agonist in the nanoliposome adjuvant,elicited a robust systemic Th1 response
